12 molecules from US20230027059A1, “METHODS AND COMPOSITIONS FOR GENERATING HUMAN MIDBRAIN NEURAL PROGENITOR CELLS” (Trallhead Biosystems Inc., priority 2021, published 2023) can be followed below.

Test [1] has as its system stage 1 neural stem cells. Description: First 12-factor HD-DoE experiment, stage 2: additional 3 days after stage 1, gene expression modeled, with dynamic profile and factor criticality analysis. The following applies: for FOXA2 expression level in absence of the factor / LMX1A expression level in absence of the factor: stage 2 recipe, first experiment model; for FOXA2 expression level in absence of the factor: 10,000 with all factors; for LMX1A expression level in absence of the factor: 30,000 with all factors. The test is classed as cell-based, human. How it is done: To develop the recipe for each stage, the impact of agonists and antagonists of multiple signaling pathways (referred to herein as “effectors”) on the expression of two sets of 53 pre-selected genes after a 3-day treatment was tested and modeled. These effectors are small molecules or proteins that are commonly used during stepwise differentiation of stem cells to specific fates. The choice of the effectors to test was based on current literature on neural induction in the midbrain region of the developing brain and differentiation of stem cells to neural progenitors. To test the effectors, experiments with at least 8 factors were designed that can assess the response of cells to 48 or more different combinations of effectors in a range of concentrations. To analyze the models, we focused on expression of genes expressed in the midbrain region, including OTX2, DMBX1, FOXA2, LMX1A, and on the absence of GB X2, which is a hindbrain marker. The impact of each effector on gene expression level is defined by a parameter called factor contribution that is calculated for each effector during the modeling. To further guide the differentiation of midbrain-committed neural stem cells to neural progenitor cells at stage 2, we performed an additional HD-DoE experiment. We thereby obtained additional gene regulatory models that were used for preparation of differentiation protocol. The basis of this was a 12-factor HD-DoE experiment with focus on initiation of differentiation of cells toward midbrain neural progenitor cells for an additional 3 days after termination of stage 1 treatment. Here, we focused on expression of LMX1A and FOXA2 in neural progenitor cells with low to zero expression of GBX2. LMX1A had significant high expression level in the model with value of 47888. Therefore, we used optimization setting for this gene to identify the positive factors. The factors in this experiment included SC79, MK2206, ZM336372, PD0325901, CHIR99021, A 83-01, TTNPB, AGN193109, GW3965, SR9243, Purmorphamine and GSI-XX. […] Therefore, we used dynamic profile analysis to adjust the recipe for optimized expression of both LMX1A and FOXA2 genes and minimum expression of GBX2 (FIG. 7). It was observed that even without addition of Purmorphamine, expression level of FOXA2 was at 5000, therefore inclusion of this effector is not essential, however it can improve expression of FOXA2. […] A 83-01 was another factor with opposite effect on FOXA2 and LMX1A that was included in the final recipe. […] To assess the impact of elimination of each validated factor, we used dynamic profile analysis and compared the expression level of genes of interest in absence of each finalized factor while others are present. […] In the stage 2 recipe, each of the six finalized factors were removed while the other five factors were present and the expression levels of FOXA2, LMX1A and GBX2 were assessed, compared to the levels in the presence of all factors. According to the first experiment model, the absence of TTNPB lead to a rise of GBX2 expression, while the value of FOXA2 and LMX1A reduced drastically from 10,000 to 0 and 30,000 to 15,000, respectively. The absence of A 83-01 reduced the expression of FOXA2 from 10,000 to 7000, however, as expected, the value of LMX1A increased from 30,000 to 40,000. […] According to the second experiment model, the absence of BMP7 and MK2206 both reduced the level of FOXA2 while increasing the value of LMX1A, with BMP7 as the main effector that led to 0 expression of FOXA2.

Test [2] deals with stage 1 neural stem cells. Description: Second 12-factor HD-DoE experiment, stage 2: hiPSCs in stage 1 media 3 days, then 96 factor combinations for 3 days, with dynamic profile and factor criticality analysis. The following applies: for FOXA2 expression level in absence of the factor / LMX1A expression level in absence of the factor: stage 2 recipe, second experiment model; for LMX1A expression level in absence of the factor: 4000 with all factors; for impact on expression of GBX2: stage 2, second 12-factor experiment, dynamic profile; for factor contribution: negative impact. The test is classed as cell-based, human. On the procedure: To test additional factors like FGF8 that is routinely used in midbrain differentiation protocols, we ran another 12-factor experiment consisting of LDN193189, BMP7, A 83-01, Activin A, Takinib, PD0325901, MK2206, FGF8b, AZD3147, MHY1485, GSI-XX and Yhhu 3792. Similar to the previous experiment, hiPSCs were treated with stage 1 media for 3 days and then treated with 96 conditions of combinations of the factors for an additional 3 days. When this model was optimized for maximum expression of FOXA2, BMP7 with factor contribution of 13.7 and MK2206 with 14.2 had the most impact on its expression followed by AZD 3147 with factor contribution of 10.9. […] Another difference was BMP7, which has a negative impact on LMX1A. However, the factor contribution is less than 10. Therefore, to evaluate the effect of interactions between the factors and the optimal condition for the expression of both FOXA2 and LMX1A, we used dynamic profile analysis (FIG. 10). […] To assess the impact of elimination of each validated factor, we used dynamic profile analysis and compared the expression level of genes of interest in absence of each finalized factor while others are present. […] In the stage 2 recipe, each of the six finalized factors were removed while the other five factors were present and the expression levels of FOXA2, LMX1A and GBX2 were assessed, compared to the levels in the presence of all factors. According to the first experiment model, the absence of TTNPB lead to a rise of GBX2 expression, while the value of FOXA2 and LMX1A reduced drastically from 10,000 to 0 and 30,000 to 15,000, respectively. The absence of A 83-01 reduced the expression of FOXA2 from 10,000 to 7000, however, as expected, the value of LMX1A increased from 30,000 to 40,000. […] According to the second experiment model, the absence of BMP7 and MK2206 both reduced the level of FOXA2 while increasing the value of LMX1A, with BMP7 as the main effector that led to 0 expression of FOXA2.

The test system of test [3] is human pluripotent stem cells. Description: 13-factor HD-DoE experiment, stage 1: 3-day effector treatment, gene expression modeled, with dynamic profile and factor criticality analysis. Format: cell-based. The note with it: for LMX1A expression level in absence of the factor / FOXA2 expression level in absence of the factor / DMBX1 expression level in absence of the factor / OTX2 expression level in absence of the factor: stage 1 recipe, other four factors present; for LMX1A expression level in absence of the factor: 300 with all five factors; for FOXA2 expression level in absence of the factor: 600 with all five factors; for DMBX1 expression level in absence of the factor: 3000 with all five factors; for OTX2 expression level in absence of the factor: 12000 with all five factors. The source says:
This example utilizes a method of High-Dimensional Design of Experiments (HD-DoE), as previously described in Bukys et al. (2020) Iscience 23:101346. The method employs computerized design geometries to simultaneously test multiple process inputs and offers mathematical modeling of a deep effector/response space. The method allows for finding combinatorial signaling inputs that control a complex process, such as during cell differentiation.
It allows testing of multiple plausible critical process parameters, as such parameters impact output responses, such as gene expression. Because gene expression provides hallmark features of the phenotype of, for example, a human cell, the method can be applied to identify, and understand, which signaling pathways control cell fate. In the current example, the HD-DOE method was applied with the intent to find conditions for induction of midbrain neural progenitor-expressed genes, directly from the pluripotent stem cell state.
To develop the recipe for each stage, the impact of agonists and antagonists of multiple signaling pathways (referred to herein as “effectors”) on the expression of two sets of 53 pre-selected genes after a 3-day treatment was tested and modeled. These effectors are small molecules or proteins that are commonly used during stepwise differentiation of stem cells to specific fates. The choice of the effectors to test was based on current literature on neural induction in the midbrain region of the developing brain and differentiation of stem cells to neural progenitors.
To test the effectors, experiments with at least 8 factors were designed that can assess the response of cells to 48 or more different combinations of effectors in a range of concentrations. To analyze the models, we focused on expression of genes expressed in the midbrain region, including OTX2, DMBX1, FOXA2, LMX1A, and on the absence of GB X2, which is a hindbrain marker. The impact of each effector on gene expression level is defined by a parameter called factor contribution that is calculated for each effector during the modeling.
To identify the recipe of stage 1 of differentiation, cells were treated with various effectors for 3 days and the gene expression of cells was modeled. […] This model consisted of 13 factors including LDN193189, PD173074, BLU9931, Purmorphamine, SC79, MK2206, ZM336372, PD0325901, CHIR99021, XAV939, UCLA-gp130, Tofacitinib and GO 6983.
LDN193189 and CHIR99021 are common in both optimization settings and the rest of the factors except Purmorphamine, have a factor contribution less than 10. Therefore, we focused on impact of addition of Purmorphamine to the original 4 effectors.
This assessment was done through dynamic profile analysis of the model with focus on expression of OTX2, DMBX1, LMX1A and FOXA2 (FIG. 3).
To assess the impact of elimination of each validated factor, we used dynamic profile analysis and compared the expression level of genes of interest in absence of each finalized factor while others are present.
In the stage 1 recipe, each of the five finalized factors were removed while the other four factors were present and the expression levels of OTX2, DMBX1, FOXA2 and LMX1A was assessed compared to the levels in the presence of all five factors (FIGS. 11A-B). […] Expression level of DMBX1 increased in absence of LDN193189, however values of OTX2, FOXA2 and LMX1A decreased.

[4] abbreviates: stage 2, first 12-factor experiment, dynamic profile.
The mark [5] stands for this setting: dynamic profile, Purmorphamine added to the original 4 effectors.

Regarding `Cc1cccc(-c2nn(C(=S)Nc3ccccc3)cc2-c2ccnc3ccccc23)n1` [A 83-01], in test [1], the “FOXA2 expression level in absence of the factor” value (shortened to “FOXA2 expression level”) is on record as 7000 and the “LMX1A expression level in absence of the factor” value was 40,000.

Turning to `C[C@H]1COCCN1c1cc(C2(S(=O)(=O)C3CC3)CC2)nc(-c2ccc(NC(=S)NCCO)cc2)n1` [AZD 3147], in test [2], the “FOXA2 expression level” value is reported as “almost no effect” and the “LMX1A expression level in absence of the factor” value was 2000.

`Cc1c[nH]c(-c2cnc(NCCNc3ccc(C#N)cn3)nc2-c2ccc(Cl)cc2Cl)n1` [CHIR99021]: in test [1] (setting [4]), the “impact on expression of GBX2” value is “increases” and the “impact on expression of LMX1A” value is given as “positive impacts”. For the same molecule, in test [3], the “LMX1A expression level in absence of the factor” value was “reduced”, the “FOXA2 expression level” value is “reduced”, the “DMBX1 expression level in absence of the factor” value is recorded as “reduced” and the “OTX2 expression level in absence of the factor” value (from here on “OTX2 expression level in absence”) is recorded as “reduced”.

On to `O=C(O)Cc1cccc(OCCCN(Cc2cccc(C(F)(F)F)c2Cl)CC(c2ccccc2)c2ccccc2)c1` [GW3965], for which, in test [1], the “FOXA2 expression level” value is reported as 17,000 and the “LMX1A expression level in absence of the factor” value is on record as 10,000.

For the molecule `c1ccc2c(-c3cnn4cc(-c5ccc(N6CCNCC6)cc5)cnc34)ccnc2c1` [LDN193189], in test [3], the “LMX1A expression level in absence of the factor” value is listed as “decreased”, the “FOXA2 expression level” value was “decreased”, the “DMBX1 expression level in absence of the factor” value is “increased” and the “OTX2 expression level in absence” value was “decreased”.

`NC1(c2ccc(-c3nc4ccn5c(=O)[nH]nc5c4cc3-c3ccccc3)cc2)CCC1` [MK2206]: in test [2], the “impact on expression of GBX2” value was “desirable impact”, the “FOXA2 expression level” value is on record as “reduced” and the “LMX1A expression level in absence of the factor” value is “increasing”. In test [3], the “LMX1A expression level in absence of the factor” value was “stayed the same”, the “FOXA2 expression level” value is “stayed the same”, the “DMBX1 expression level in absence of the factor” value came out at 1500 and the “OTX2 expression level in absence” value is 9500.

Take `O=C(NOC[C@H](O)CO)c1ccc(F)c(F)c1Nc1ccc(I)cc1F` [PD0325901]: in test [3], the “LMX1A expression level in absence of the factor” value turned out to be 500, the “FOXA2 expression level” value worked out at 700 and the “DMBX1 expression level in absence of the factor” value was 900.

Regarding `c1ccc2c(Oc3nc(Nc4ccc(N5CCOCC5)cc4)c4ncn(C5CCCCC5)c4n3)cccc2c1` [Purmorphamine], in test [1] (dynamic profile analysis, stage 2), the “expression level of FOXA2 without addition of the effector” value amounted to 5000. In addition, in test [3] (setting [5]), the DMBX1 expression level is listed as around 3000, the LMX1A expression level is around 450 and the OTX2 expression level is given as around 11000. In test [3], the “LMX1A expression level in absence of the factor” value is “beneficial”, the “FOXA2 expression level” value is given as “reduction”, the “DMBX1 expression level in absence of the factor” value is “beneficial” and the “OTX2 expression level in absence” value is on record as “beneficial”.

Consider `C/C(=C\c1ccc(C(=O)O)cc1)c1ccc2c(c1)C(C)(C)CCC2(C)C` [TTNPB], for which, in test [1], the “FOXA2 expression level” value amounted to 0 and the “LMX1A expression level in absence of the factor” value is reported as 15,000.

Turning to `COc1cccc(Oc2cccc3nc(Nc4ccc(C(C)C)cc4)nc(N)c23)c1` [Yhhu 3792], the “impact on expression of GBX2” value in test [2] is “positive effect”.

Take FGF8b: the factor contribution in test [2] (model optimized for maximum expression of FOXA2) is 12.8; in test [2] (model optimized for maximum expression of LMX1A), 16.9.

B1: BMP7 (protein, UniProt P18075 293-431, looked up)
Bone morphogenetic protein 7: STGSKQRSQNRSKTPKNQEALRMANVAENSSSDQRQACKKHELYVSFRDLGWQDWIIAPEGYAAYYCEGECAFPLNSYMNATNHAIVQTLVHFINPETVPKPCCAPTQLNAISVLYFDDSSNVILKKYRNMVVRACGCH
notes: BMP pathway agonist
For B1, in test [2], the “FOXA2 expression level” value is recorded as 0 and the “LMX1A expression level in absence of the factor” value was “increasing”.
